We go through one compound from patent US20100273787A1, “KYNURENINE-AMINOTRANSFERASE INHIBITORS” (priority 2007, published 2010).

As usually defined, the IC50 is the concentration that gives 50% inhibition.

For assay [1], the target named is Human recombinant KAT II protein (Homo sapiens, UniProt Q8N5Z0). Description: KAT II activity, human recombinant protein ([3H]-kynurenine to [3H]-KYNA). The format is biochemical. Here is the method:
(§1) For the measurement of KAT II activity, 100 μl of partially purified rat liver enzyme were incubated (2 hrs, 37° C.) with 100 μl of 150 mM Tris-acetate (pH 7.0), 2 μM (2.5 nCi) [^3H]-kynurenine, 1 mM pyruvate and 80 μM pyridoxal-5′-phosphate. Blanks were obtained using denatured protein preparations. The reaction was terminated by the addition of […] of 30% (w/v) trichloroacetic acid. 1 ml of 0.1 M HCl was added, and the denatured protein was removed by centrifugation. 1 ml of the supernatant was applied to a Dowex 50 W H^+cation exchange column, which was then washed with 1 ml of 0.1 M HCl, followed by 1 ml of ultrapure water. [^3H]-KYNA was subsequently eluted with 2×1 ml of ultrapure water, and radioactivity was quantified by liquid scintillation spectrometry. Human recombinant KAT II protein was also used to measure KAT II activity as described above.
(§2) Test compounds were added in 20 μl aliquots at the beginning of the incubation period to examine interference with enzyme activity.

Assay [2] addresses T1, KAT II (partially purified rat liver enzyme) (Rattus norvegicus, UniProt Q64602).
T1 construct: partially purified rat liver enzyme; from tissue; host or cells: rat liver
Nature of the assay: KAT II activity, partially purified rat liver enzyme ([3H]-kynurenine to [3H]-KYNA). The format is biochemical. As to the method: as §1, §2

The target of a further assay is T2, Kynurenine 3-hydroxylase (Rattus norvegicus, UniProt O88867).
T2 construct: determined in rat liver homogenate; from tissue; host or cells: rat liver homogenate
T2 sequence (O88867 whole entry): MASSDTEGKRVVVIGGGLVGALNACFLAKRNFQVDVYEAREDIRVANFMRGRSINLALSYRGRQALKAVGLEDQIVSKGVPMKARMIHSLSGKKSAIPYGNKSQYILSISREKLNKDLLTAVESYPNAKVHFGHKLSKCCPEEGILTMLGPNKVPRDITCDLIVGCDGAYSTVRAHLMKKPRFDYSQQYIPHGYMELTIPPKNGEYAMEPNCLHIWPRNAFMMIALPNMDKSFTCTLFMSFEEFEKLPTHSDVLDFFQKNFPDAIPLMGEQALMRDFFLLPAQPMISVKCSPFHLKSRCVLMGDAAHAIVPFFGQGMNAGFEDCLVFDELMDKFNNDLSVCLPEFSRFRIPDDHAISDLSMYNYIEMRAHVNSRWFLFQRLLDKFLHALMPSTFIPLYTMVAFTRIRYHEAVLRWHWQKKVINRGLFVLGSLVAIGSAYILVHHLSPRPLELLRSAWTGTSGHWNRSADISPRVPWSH
Nature of the assay: Kynurenine 3-hydroxylase activity in rat liver homogenate. Type of assay: biochemical. As to the method:
(§3) Kynurenine 3-hydroxylase and kynureninase activities were determined in rat liver homogenate according to established procedures (see Anal. Biochem., 205:257-62, 1992 and Neuroscience., 61:237-43, 1994 for methodology).

A further assay concerns the target T3, Kynureninase (Rattus norvegicus, UniProt P70712).
T3 construct: determined in rat liver homogenate; from tissue; host or cells: rat liver homogenate
T3 sequence (P70712 1-464): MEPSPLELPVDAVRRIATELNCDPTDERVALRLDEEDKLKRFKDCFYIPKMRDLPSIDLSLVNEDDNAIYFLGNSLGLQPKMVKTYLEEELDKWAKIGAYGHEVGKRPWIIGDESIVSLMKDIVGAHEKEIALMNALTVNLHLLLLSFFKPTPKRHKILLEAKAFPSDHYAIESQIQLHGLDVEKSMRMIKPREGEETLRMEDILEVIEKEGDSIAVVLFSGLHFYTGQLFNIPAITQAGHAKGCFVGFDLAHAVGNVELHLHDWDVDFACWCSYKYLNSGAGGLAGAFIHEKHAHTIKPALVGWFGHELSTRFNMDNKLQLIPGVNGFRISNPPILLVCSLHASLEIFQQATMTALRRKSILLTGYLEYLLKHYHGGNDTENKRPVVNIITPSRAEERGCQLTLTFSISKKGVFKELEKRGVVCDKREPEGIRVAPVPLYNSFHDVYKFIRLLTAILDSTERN
Nature of the assay: Kynureninase activity in rat liver homogenate. The format is biochemical. As to the method:
as §3

In assay [3] the test system is KYNA production in rat brain tissue slices. Nature of the assay: De novo production of KYNA in rat brain tissue slices. The format is cell-based. The note with it: 6 hr at 37 degrees, FIG. 1. Here is the method:
The ability of Compound (A) to inhibit the de novo production of KYNA in rat brain tissue slices was also tested. A 2 μM concentration of Compound (A) was assayed as described by Gramsbergen J B, Hodgkins P S, Rassoulpour A, Turski W A, Guidetti P, Schwarcz R., (J. Neurochem., 69:290, 1997). Briefly, an aliquot of the original tissue homogenate was further diluted (1:5, v/v) in a buffer containing 5 mM Tris acetate (pH 8.0), 50 μM pyridoxal-5′-phosphate and 10 mM 2-mercapto-ethanol, and dialyzed overnight at 4 degrees. The reaction mixture containing 150 mM Tris-acetate buffer (pH 7.0), 2 μM L-kynurenine, 1 mM pyruvate, 80 μM pyridoxal-5′-phosphate and 80 μL dialysate in a total volume of […] was incubated w/wo Compound (A) for 6 hr at 37 degrees. The reaction was terminated by adding […] of 50% (w/v) trichloracetic acid and KYNA levels were measured using reverse-phase HPLC with fluorescence detection (excitation, 344 nm; emission, 398 nm).

Assay [4] deals with extracellular kynurenic acid (KYNA) and dopamine (DA) levels in prefrontal cortex. Nature of the assay: In vivo reverse dialysis / microdialysis in rat prefrontal cortex. To be noted: 1 mM into prefrontal cortex for 2 hours by reverse dialysis, FIG. 2. Here is the method: Microdialysis was performed in the prefrontal cortex of unanesthetized male rats (200-220 g) according to established procedures (see Eur. J. Neurosci., 4:1264-70, 1992 for methodology).
Compound (A) was also tested in the rat brain in vivo. Briefly, a concentration of 1 mM Compound (A) was introduced into the prefrontal cortex for 2 hours by reverse dialysis. A detailed description of this method can be found in J Neurosci Res 85(4):845-54, 2007 (Ceresoli-Borroni G, Guidetti P, Amori L, Pellicciari R, Schwarcz R).

Human recombinant KAT II protein, sequence (Q8N5Z0 30-425): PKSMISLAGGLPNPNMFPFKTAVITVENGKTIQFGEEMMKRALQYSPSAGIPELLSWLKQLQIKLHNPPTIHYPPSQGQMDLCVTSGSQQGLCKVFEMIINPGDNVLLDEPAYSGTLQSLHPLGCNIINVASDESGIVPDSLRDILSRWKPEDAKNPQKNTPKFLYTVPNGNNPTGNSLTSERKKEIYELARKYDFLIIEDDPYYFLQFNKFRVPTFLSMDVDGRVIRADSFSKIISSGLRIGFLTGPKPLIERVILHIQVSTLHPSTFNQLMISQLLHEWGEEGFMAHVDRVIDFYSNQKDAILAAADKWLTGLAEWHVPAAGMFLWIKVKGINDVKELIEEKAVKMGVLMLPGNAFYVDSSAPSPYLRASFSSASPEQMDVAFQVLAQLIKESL
T1 sequence (Q64602 30-425): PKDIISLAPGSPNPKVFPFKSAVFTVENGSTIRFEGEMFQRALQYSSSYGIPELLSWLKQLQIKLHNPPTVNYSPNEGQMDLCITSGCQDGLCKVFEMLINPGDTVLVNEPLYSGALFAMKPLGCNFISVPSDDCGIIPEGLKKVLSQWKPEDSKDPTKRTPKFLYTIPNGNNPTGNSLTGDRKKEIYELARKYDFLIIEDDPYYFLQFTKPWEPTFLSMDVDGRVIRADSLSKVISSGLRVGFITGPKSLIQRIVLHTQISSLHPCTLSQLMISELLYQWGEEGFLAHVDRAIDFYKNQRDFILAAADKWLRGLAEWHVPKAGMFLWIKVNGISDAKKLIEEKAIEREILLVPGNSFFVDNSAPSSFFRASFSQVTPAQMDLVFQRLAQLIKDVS

Take `C[C@H]1COc2c(N3CCN(N)CC3)c(F)cc3c(=O)c(C(=O)O)cn1c23.O=C(O)C(F)(F)F` [Compound (A), (S)-(−)-9-(4-Aminopiperazin-1-yl)-8-fluoro-3-methyl-6-oxo-2,3-dihydro-6H-1-oxa-3a-aza-phenalene-5-carboxylic acid trifluoroacetate]: the IC50 was 0.2 µM in assay [1] (human recombinant protein), 2 µM in assay [2], over 1000 µM against Kynurenine 3-hydroxylase and over 2000 µM at Kynureninase. Moreover, the “times more active against human KAT II than against rat KAT II” value in assay [1] (human vs rat KAT II) was 10 times. In addition, in assay [1] (relative to UPF 874), the “times more active than UPF 874 as a KAT II inhibitor in humans” value was found to be 3000 times. The “inhibition of de novo production of KYNA from L-kynurenine” value in assay [3] is on record as “dose-dependently inhibit”. In addition, the “increase of extracellular dopamine (DA) levels” value in assay [4] is over 2.5 fold. For the same compound, the “reduction of extracellular kynurenic acid (KYNA) levels” value in assay [4] is on record as about 40%.
